# Data taken from ChEMBL document CHEMBL2057129, “Evaluation of synthetic FK506 analogues as ligands for the FK506-binding proteins 51 and 52” (J Med Chem, 2012).
# pIC50: −log10 of the molar value.
# Experiments:
# [1] = target: T1, Peptidyl-prolyl cis-trans isomerase FKBP4 (Homo sapiens, UniProt Q02790); experiment: Binding affinity to FKBP52 FK1 domain by fluorescence polarization assay
# T1 sequence (Q02790 whole entry): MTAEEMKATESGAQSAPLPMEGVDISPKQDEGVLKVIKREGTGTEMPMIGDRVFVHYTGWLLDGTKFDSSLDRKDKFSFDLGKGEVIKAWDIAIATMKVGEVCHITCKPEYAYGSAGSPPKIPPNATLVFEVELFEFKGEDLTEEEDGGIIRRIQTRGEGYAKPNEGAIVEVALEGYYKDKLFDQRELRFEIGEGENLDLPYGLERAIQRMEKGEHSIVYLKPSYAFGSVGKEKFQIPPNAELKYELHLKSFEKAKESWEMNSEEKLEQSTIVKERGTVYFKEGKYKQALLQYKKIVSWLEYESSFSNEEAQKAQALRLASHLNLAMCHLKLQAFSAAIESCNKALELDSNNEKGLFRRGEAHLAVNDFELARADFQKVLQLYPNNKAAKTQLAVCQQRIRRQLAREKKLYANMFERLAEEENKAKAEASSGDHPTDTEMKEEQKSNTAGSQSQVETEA
# [2] = target: T2, Peptidyl-prolyl cis-trans isomerase FKBP5 (Homo sapiens, UniProt Q13451); experiment: Binding affinity to FKBP51 FK1 domain by fluorescence polarization assay
# T2 sequence (Q13451 whole entry): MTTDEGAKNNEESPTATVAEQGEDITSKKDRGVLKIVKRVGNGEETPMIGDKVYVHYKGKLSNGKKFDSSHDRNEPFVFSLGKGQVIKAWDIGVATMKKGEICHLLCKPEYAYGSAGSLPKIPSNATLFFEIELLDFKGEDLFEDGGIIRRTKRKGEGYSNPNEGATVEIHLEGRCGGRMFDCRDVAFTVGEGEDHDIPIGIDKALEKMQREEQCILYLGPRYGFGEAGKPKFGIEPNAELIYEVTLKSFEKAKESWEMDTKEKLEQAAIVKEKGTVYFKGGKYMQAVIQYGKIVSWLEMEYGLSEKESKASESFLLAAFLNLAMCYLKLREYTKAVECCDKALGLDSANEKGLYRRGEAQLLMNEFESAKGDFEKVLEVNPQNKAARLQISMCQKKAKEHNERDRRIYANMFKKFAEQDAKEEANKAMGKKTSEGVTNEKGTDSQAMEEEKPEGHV
# [3] = target: Peptidyl-prolyl cis-trans isomerase FKBP1A (Homo sapiens, UniProt P62942); experiment: Binding affinity to FKBP12 by fluorescence polarization assay
# Peptidyl-prolyl cis-trans isomerase FKBP1A, sequence (P62942 whole entry): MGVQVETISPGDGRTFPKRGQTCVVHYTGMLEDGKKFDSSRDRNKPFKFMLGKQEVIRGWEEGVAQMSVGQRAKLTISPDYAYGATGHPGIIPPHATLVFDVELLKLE
structure (smiles),measurement,setting,value
CCC(C)(C)C(=O)C(=O)N1CCCC[C@H]1C(=O)OCCCc1cccnc1,pIC50,[1],< 3.82
same,pIC50,[2],< 3.82
same,pIC50,[3],5.68
CCC(C)(C)C(=O)C(=O)N1CCC[C@H]1C(=O)O[C@H](CCc1ccc(OC)c(OC)c1)c1cccc(OCC(=O)O)c1,pIC50,[3],6.10
CCC(C)(C)C(=O)C(=O)N1CC=CC[C@H]1C(=O)O[C@H](CCc1ccc(OC)c(OC)c1)c1cccc(OCC(=O)O)c1,pIC50,[3],6.26
CCC(C)(C)C(=O)C(=O)N1CCSC[C@H]1C(=O)O[C@H](CCc1ccc(OC)c(OC)c1)c1cccc(OCC(=O)O)c1,pIC50,[1],< 4.00
same,pIC50,[2],< 4.00
same,pIC50,[3],5.89
CCC(C)(C)C(=O)C(=O)N1CCCC[C@H]1C(=O)OC,pIC50,[1],< 4.00
same,pIC50,[2],< 4.00
same,pIC50,[3],4.77
CCC(C)(C)C(=O)C(=O)N1CCCC[C@H]1C(=O)OCCOc1ccc(OC)c(OC)c1,pIC50,[1],< 4.00
same,pIC50,[2],< 4.00
same,pIC50,[3],5.61
CCC(C)(C)C(=O)C(=O)N1CCCC[C@H]1C(=O)O[C@H](CCc1ccc(OC)c(OC)c1)c1cccc(OCCN2CCOCC2)c1,pIC50,[1],5.55
same,pIC50,[3],7.00
CCC(C)(C)C(=O)C(=O)N1CCC[C@H]1C(=O)O[C@H](CCc1ccc(OC)c(OC)c1)c1cccc(OCCN2CCOCC2)c1,pIC50,[1],5.26
same,pIC50,[2],4.81
same,pIC50,[3],5.98
CCC(C)(C)C(=O)C(=O)N1CCCC[C@H]1C(=O)O[C@H](CCc1ccc(OC)c(OC)c1)c1cccc(N)c1,pIC50,[1],5.97
same,pIC50,[2],5.42
COc1ccc(CC[C@@H](OC(=O)[C@@H]2CCCCN2C(=O)C(=O)c2cc(OC)c(OC)c(OC)c2)c2cccc(OCC(=O)O)c2)cc1OC,pIC50,[3],6.82
COc1ccc(CC[C@@H](OC(=O)[C@@H]2CCCCN2C(=O)C(=O)[C@]2(O)CCCC[C@H]2C)c2cccc(OCC(=O)O)c2)cc1OC,pIC50,[3],7.22
CC[C@@H]1CCCC[C@@]1(O)C(=O)C(=O)N1CCCC[C@H]1C(=O)O[C@H](CCc1ccc(OC)c(OC)c1)c1cccc(OCC(=O)O)c1,pIC50,[3],6.89
CC[C@H]1CCCC[C@]1(O)C(=O)C(=O)N1CCCC[C@H]1C(=O)O[C@H](CCc1ccc(OC)c(OC)c1)c1cccc(OCC(=O)O)c1,pIC50,[3],6.46
COc1ccc(CC[C@@H](OC(=O)[C@@H]2CCCCN2C(=O)C(=O)[C@]2(O)CCCC[C@H]2CO)c2cccc(OCC(=O)O)c2)cc1OC,pIC50,[3],6.29
COc1ccc(CC[C@@H](OC(=O)[C@@H]2CCCCN2C(=O)C(=O)[C@]2(O)CCCC[C@@H]2C)c2cccc(OCC(=O)O)c2)cc1OC,pIC50,[3],7.30
COc1ccc(CC[C@@H](OC(=O)[C@@H]2CCCCN2C(=O)C(=O)[C@@]2(O)CCCC[C@@H]2C)c2cccc(OCC(=O)O)c2)cc1OC,pIC50,[3],7.30
COc1ccc(CC[C@@H](OC(=O)[C@@H]2CCCCN2C(=O)C(=O)[C@@]2(O)CCCC[C@H]2C)c2cccc(OCC(=O)O)c2)cc1OC,pIC50,[3],7.22
CCC(C)(C)C(=O)C(=O)N1CCCC[C@H]1C(=O)O[C@H](CCc1ccc(OC)c(OC)c1)c1cccc(OCC(=O)O)c1,pIC50,[1],4.98
same,pIC50,[3],6.77
COc1ccc(CC[C@@H](OC(=O)[C@@H]2CCCCN2C(=O)C(=O)[C@]2(O)CCCC[C@H]2C)c2cccc(OCCN3CCOCC3)c2)cc1OC (mixture of isomers),pIC50,[3],7.22
CCC(C)(C)C(=O)C(=O)N1CCCC[C@H]1C(=O)NC(CCc1ccc(OC)c(OC)c1)c1cccc(OCC(=O)O)c1 (mixture of isomers),pIC50,[1],< 4.00
same,pIC50,[2],< 4.00
same,pIC50,[3],5.47
COc1ccc(CC[C@@H](OC(=O)[C@@H]2CCCCN2C(=O)C(=O)[C@]2(O)CCCC[C@H]2C)c2cccc(OCC(=O)O)c2)cc1OC (mixture of isomers),pIC50,[3],7.22
COc1ccc(CCOC(=O)[C@@H]2CCCCN2C(=O)C(=O)[C@]2(O)CCCC[C@H]2C)cc1OC (mixture of isomers),pIC50,[1],< 4.00
same,pIC50,[2],< 4.00
same,pIC50,[3],5.66
COc1ccc(OCCOC(=O)[C@@H]2CCCCN2C(=O)C(=O)[C@]2(O)CCCC[C@H]2C)cc1OC (mixture of isomers),pIC50,[1],4.93
same,pIC50,[2],4.53
same,pIC50,[3],6.51
CC[C@@H]1CCCC[C@@]1(O)C(=O)C(=O)N1CCCC[C@H]1C(=O)OCCOc1ccc(OC)c(OC)c1 (mixture of isomers),pIC50,[1],< 4.00
same,pIC50,[2],< 4.00
same,pIC50,[3],5.56
CC[C@@H]1CCCC[C@@]1(O)C(=O)C(=O)N1CCCC[C@H]1C(=O)O[C@H](CCc1ccc(OC)c(OC)c1)c1cccc(OCC(=O)O)c1 (mixture of isomers),pIC50,[3],6.49
CC[C@@H]1CCCC[C@@]1(O)C(=O)C(=O)N1CCCC[C@H]1C(=O)O[C@H](CCc1ccc(OC)c(OC)c1)c1cccc(OCCN2CCOCC2)c1 (mixture of isomers),pIC50,[3],6.33
COc1ccc(CC[C@@H](OC(=O)[C@@H]2CCCCN2C(=O)C(=O)[C@]2(O)CCCC[C@@H]2C)c2cccc(OCC(=O)O)c2)cc1OC (mixture of isomers),pIC50,[3],7.22
CC[C@H]1CCCC[C@@]1(O)C(=O)C(=O)N1CCCC[C@H]1C(=O)O[C@H](CCc1ccc(OC)c(OC)c1)c1cccc(OCC(=O)O)c1 (mixture of isomers),pIC50,[3],6.24
COc1cc(C(=O)C(=O)N2CCCC[C@H]2C(=O)OC(CCCc2cccnc2)CCCc2cccnc2)cc(OC)c1OC [BIRICODAR],pIC50,[1],5.13
same,pIC50,[2],5.07
same,pIC50,[3],7.77
CCC(C)(C)C(=O)C(=O)N1CCC[C@H]1C(=O)OCCCc1cccnc1 [GPI-1046],pIC50,[1],< 4.00
same,pIC50,[2],< 4.00
same,pIC50,[3],5.91
COc1cc(C(=O)C(=O)N(C)[C@@H](Cc2ccc(Cl)cc2)C(=O)N(Cc2ccccc2)C(CCc2ccncc2)CCc2ccncc2)cc(OC)c1OC [TIMCODAR],pIC50,[1],< 4.00
same,pIC50,[2],< 4.00
same,pIC50,[3],< 4.00
